Experimental data as given in ChEMBL document CHEMBL1201861, “Genomics of Drug Sensitity in Cancer screening data, Wellcome Trust Sanger Institute”.
pIC50: −log10 of the molar value.

Assays:
Assay in all cases: cells
[1] = tested on: EFO-27; format: functional, cell-based, Homo sapiens; conditions: Homo sapiens, EFO-27;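 also: growth inhibition of EFO-27 cells, read out with a cell viability assay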
Description: SANGER: Inhibition of human EFO-27 cell growth in a cell viability assay.

[2] = tested on: TK-10; format: functional, cell-based, Homo sapiens; conditions: Homo sapiens, TK-10;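 also: growth inhibition of TK-10 cells, read out in a cell viability assay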
Description: SANGER: Inhibition of human TK10 cell growth in a cell viability assay.

[3] = tested on: KLE; format: functional, cell-based, Homo sapiens; conditions: Homo sapiens, KLE;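 also: growth inhibition of human KLE cells, read out with a cell viability assay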
Description: SANGER: Inhibition of human KLE cell growth in a cell viability assay.

[4] = tested on: SNB-75; format: functional, cell-based, Homo sapiens; conditions: Homo sapiens, SNB-75;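 also: cell viability assay measuring growth inhibition of human SNB-75 cells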
Description: SANGER: Inhibition of human SNB75 cell growth in a cell viability assay.

[5] = tested on: RO82-W-1; format: functional, cell-based, Homo sapiens; conditions: Homo sapiens, RO82-W-1;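 also: growth inhibition of human RO82-W-1 cells, measured with a cell viability assay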
Description: SANGER: Inhibition of human RO82-W-1 cell growth in a cell viability assay.

[6] = tested on: BEN; format: functional, cell-based, Homo sapiens; conditions: Homo sapiens, BEN;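 also: growth inhibition of the BEN cell line, read out with a cell viability assay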
Description: SANGER: Inhibition of human BEN cell growth in a cell viability assay.

[7] = tested on: CAL-120; format: functional, cell-based, Homo sapiens; conditions: Homo sapiens, CAL-120;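 also: cell growth inhibition, read out as cell viability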
Description: SANGER: Inhibition of human CAL-120 cell growth in a cell viability assay.

[8] = tested on: NCI-H1648; format: functional, cell-based, Homo sapiens; conditions: Homo sapiens, NCI-H1648;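 also: cell viability assay measuring inhibition of NCI-H1648 cell growth, from the Sanger screening data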
Description: SANGER: Inhibition of human NCI-H1648 cell growth in a cell viability assay.

[9] = tested on: SK-NEP-1; format: functional, cell-based; conditions: Homo sapiens;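 also: growth inhibition of human SK-NEP-1 cells, read out by a cell viability assay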
Description: SANGER: Inhibition of human SK-NEP-1 cell growth in a cell viability assay.

[10] = tested on: MN-60; format: functional, cell-based; conditions: Homo sapiens;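 also: growth inhibition of the MN-60 cell line, determined with a cell viability assay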
Description: SANGER: Inhibition of human MN-60 cell growth in a cell viability assay.

[11] = tested on: MCF7; format: functional, cell-based, Homo sapiens; conditions: Homo sapiens, MCF7;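 also: growth inhibition of human MCF7 cells, read out with a cell viability assay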
Description: SANGER: Inhibition of human MCF7 cell growth in a cell viability assay.

[12] = tested on: MS-1; format: functional, cell-based; conditions: Homo sapiens;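 also: growth inhibition of MS-1 cells, read out by cell viability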
Description: SANGER: Inhibition of human MS-1 cell growth in a cell viability assay.

[13] = tested on: D-336MG; format: functional, cell-based, Homo sapiens; conditions: Homo sapiens, D-336MG
Description: SANGER: Inhibition of human D-336MG cell growth in a cell viability assay.

[14] = tested on: SNU-5; format: functional, cell-based; conditions: Homo sapiens;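 also: cell viability readout used to measure growth inhibition in human NCI-SNU-5 cells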
Description: SANGER: Inhibition of human NCI-SNU-5 cell growth in a cell viability assay.

[15] = tested on: HCC1569; format: functional, cell-based, Homo sapiens; conditions: Homo sapiens, HCC1569;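 also: growth inhibition of human HCC1569 cells, read out with a cell viability assay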
Description: SANGER: Inhibition of human HCC1569 cell growth in a cell viability assay.

[16] = tested on: IGR-1; format: functional, cell-based, Homo sapiens; conditions: Homo sapiens, IGR-1;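 also: growth inhibition of human IGR-1 cells, read out with a cell viability assay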
Description: SANGER: Inhibition of human IGR-1 cell growth in a cell viability assay.

[17] = tested on: MHH-PREB-1; format: functional, cell-based; conditions: Homo sapiens;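 also: cell viability assay measuring inhibition of proliferation of human MHH-PREB-1 cells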
Description: SANGER: Inhibition of human MHH-PREB-1 cell growth in a cell viability assay.

[18] = tested on: A704; format: functional, cell-based, Homo sapiens; conditions: Homo sapiens, A704;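 also: growth inhibition of human A704 cells, read out with a cell viability assay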
Description: SANGER: Inhibition of human A704 cell growth in a cell viability assay.

[19] = tested on: NCI-H810; format: functional, cell-based, Homo sapiens; conditions: Homo sapiens, NCI-H810;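 also: IC50 reflects inhibition of cancer cell line growth, read out with a cell viability assay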
Description: SANGER: Inhibition of human NCI-H810 cell growth in a cell viability assay.

[20] = tested on: NCI-H1770; format: functional, cell-based; conditions: Homo sapiens;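 also: growth inhibition of NCI-H1770 cells determined with a viability readout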
Description: SANGER: Inhibition of human NCI-H1770 cell growth in a cell viability assay.

[21] = tested on: GOTO; format: functional, cell-based, Homo sapiens; conditions: Homo sapiens, GOTO;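 also: growth inhibition of GOTO cells, read out by a cell viability assay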
Description: SANGER: Inhibition of human GOTO cell growth in a cell viability assay.

[22] = tested on: LB771-HNC; format: functional, cell-based, Homo sapiens; conditions: Homo sapiens, LB771-HNC;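 also: growth inhibition of LB771-HNC human cells, read out with a cell viability assay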
[23] = tested on: RPMI-8866; format: functional, cell-based; conditions: Homo sapiens
Description: SANGER: Inhibition of human RPMI-8866 cell growth in a cell viability assay.

[24] = tested on: HGC-27; format: functional, cell-based, Homo sapiens; conditions: Homo sapiens, HGC-27;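 also: growth inhibition of human HGC-27 cells, read out in a cell viability assay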
Description: SANGER: Inhibition of human HGC-27 cell growth in a cell viability assay.

[25] = tested on: KP-4; format: functional, cell-based, Homo sapiens; conditions: Homo sapiens, KP-4; read-out: IC50;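 also: human KP-4 cells, with growth inhibition read out through a cell viability assay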
Description: SANGER: Inhibition of human KP-4 cell growth in a cell viability assay.

[26] = tested on: COLO-678; format: functional, cell-based, Homo sapiens; conditions: Homo sapiens, COLO-678
Description: SANGER: Inhibition of human COLO-678 cell growth in a cell viability assay.

[27] = tested on: LoVo; format: functional, cell-based; conditions: Homo sapiens;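 also: growth inhibition of human LoVo cells, read out with a cell viability assay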
Description: SANGER: Inhibition of human LoVo cell growth in a cell viability assay.

[28] = tested on: IGROV-1; format: functional, cell-based, Homo sapiens; conditions: Homo sapiens, IGROV-1;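 also: reduction of IGROV-1 cell growth, read out with a viability assay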
Description: SANGER: Inhibition of human IGROV-1 cell growth in a cell viability assay.

[29] = tested on: NCI-H520; format: functional, cell-based, Homo sapiens; conditions: Homo sapiens, NCI-H520;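 also: growth inhibition of NCI-H520 cells, measured by a cell viability assay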
Description: SANGER: Inhibition of human NCI-H520 cell growth in a cell viability assay.

[30] = tested on: OE33; format: functional, cell-based, Homo sapiens; conditions: Homo sapiens, OE33;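 also: growth inhibition of human OE33 cells, measured by a cell viability assay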
Description: SANGER: Inhibition of human OE33 cell growth in a cell viability assay.

[31] = tested on: CAS-1; format: functional, cell-based, Homo sapiens; conditions: Homo sapiens, CAS-1;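 also: growth inhibition of CAS-1 cells, measured with a cell viability assay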
[32] = tested on: COLO-800; format: functional, cell-based, Homo sapiens; conditions: Homo sapiens, COLO-800;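 also: growth inhibition of COLO-800 cells, read out with a cell viability assay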
Description: SANGER: Inhibition of human COLO-800 cell growth in a cell viability assay.

[33] = tested on: HAL-01; format: functional, cell-based; conditions: Homo sapiens;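 also: growth inhibition of human HAL-01 cells, read out with a cell viability assay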
Description: SANGER: Inhibition of human HAL-01 cell growth in a cell viability assay.

[34] = tested on: AGS; format: functional, cell-based, Homo sapiens; conditions: Homo sapiens, AGS;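 also: growth inhibition of AGS cells, determined with a cell viability assay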
Description: SANGER: Inhibition of human AGS cell growth in a cell viability assay.

[35] = tested on: DK-MG; format: functional, cell-based, Homo sapiens; conditions: Homo sapiens, DK-MG;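 also: growth inhibition of DK-MG cells, read out with a cell viability assay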
Description: SANGER: Inhibition of human DK-MG cell growth in a cell viability assay.

[36] = tested on: SN12C; format: functional, cell-based, Homo sapiens; conditions: Homo sapiens, SN12C;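 also: growth inhibition of human SN12C cells, measured by a cell viability assay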
Description: SANGER: Inhibition of human SN12C cell growth in a cell viability assay.

[37] = tested on: CAL-39; format: functional, cell-based, Homo sapiens; conditions: Homo sapiens, CAL-39;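 also: cell viability assay measuring growth inhibition of CAL-39 cells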
Description: SANGER: Inhibition of human CAL-39 cell growth in a cell viability assay.

[38] = tested on: U-266; format: functional, cell-based; conditions: Homo sapiens
Description: SANGER: Inhibition of human U-266 cell growth in a cell viability assay.

[39] = tested on: NCI-H2228; format: functional, cell-based, Homo sapiens; conditions: Homo sapiens, NCI-H2228;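 also: growth inhibition of human NCI-H2228 cells, read out by a cell viability assay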
Description: SANGER: Inhibition of human NCI-H2228 cell growth in a cell viability assay.

[40] = tested on: NY; format: functional, cell-based, Homo sapiens; conditions: Homo sapiens, NY
Description: SANGER: Inhibition of human NY cell growth in a cell viability assay.

[41] = tested on: OVCAR-3; format: functional, cell-based, Homo sapiens; conditions: Homo sapiens, OVCAR-3;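 also: growth inhibition of human OVCAR-3 cells, determined by a cell viability assay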
Description: SANGER: Inhibition of human OVCAR-3 cell growth in a cell viability assay.

[42] = tested on: LOX IMVI; format: functional, cell-based; conditions: Homo sapiens
Description: SANGER: Inhibition of human LOXIMVI cell growth in a cell viability assay.

[43] = tested on: LU-134-A; format: functional, cell-based; conditions: Homo sapiens
Description: SANGER: Inhibition of human LU-134-A cell growth in a cell viability assay.

[44] = tested on: ALL-PO; format: functional, cell-based; conditions: Homo sapiens;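 also: growth inhibition of ALL-PO cells, read out by a cell viability assay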
Description: SANGER: Inhibition of human ALL-PO cell growth in a cell viability assay.

[45] = tested on: KARPAS-45; format: functional, cell-based; conditions: Homo sapiens;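 also: inhibition of cell line growth, read out through a viability assay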
Description: SANGER: Inhibition of human KARPAS-45 cell growth in a cell viability assay.

[46] = tested on: VMRC-RCZ; format: functional, cell-based; conditions: Homo sapiens;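 also: growth inhibition measured with a cell viability assay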
[47] = tested on: SCC-9; format: functional, cell-based, Homo sapiens; conditions: Homo sapiens, SCC-9;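 also: Read-out is a cell viability assay, with values giving inhibition of cell growth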
Description: SANGER: Inhibition of human SCC-9 cell growth in a cell viability assay.

[48] = tested on: HCT-116; format: functional, cell-based, Homo sapiens; conditions: Homo sapiens, HCT-116
Description: SANGER: Inhibition of human HCT-116 cell growth in a cell viability assay.

[49] = tested on: NCI-H596; format: functional, cell-based, Homo sapiens; conditions: Homo sapiens, NCI-H596;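 also: growth inhibition of NCI-H596 cells, read out with a cell viability assay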
Description: SANGER: Inhibition of human NCI-H596 cell growth in a cell viability assay.

[50] = tested on: IST-SL1; format: functional, cell-based, Homo sapiens; conditions: Homo sapiens, IST-SL1;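 also: growth inhibition of human IST-SL1 cells, read out with a cell viability assay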
Description: SANGER: Inhibition of human IST-SL1 cell growth in a cell viability assay.

[51] = tested on: UO-31; format: functional, cell-based; conditions: Homo sapiens;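 also: cell viability assay measuring inhibition of cell growth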
Description: SANGER: Inhibition of human U031 cell growth in a cell viability assay.

[52] = tested on: K562; format: functional, cell-based; conditions: Homo sapiens
Description: SANGER: Inhibition of human K-562 cell growth in a cell viability assay.

[53] = tested on: NTERA-2-cl-D1; format: functional, cell-based, Homo sapiens; conditions: Homo sapiens, NTERA-2-cl-D1;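 also: inhibition of cell growth, measured with a cell viability assay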
Description: SANGER: Inhibition of human NTERA-S-cl-D1 cell growth in a cell viability assay.

Compound: COC(=O)CNC(=O)C(=O)OC
- pIC50 [1]: 3.27
- pIC50 [2]: 3.45
- pIC50 [3]: 2.80
- pIC50 [4]: 3.36
- pIC50 [5]: < 2.40
- pIC50 [6]: 4.43
- pIC50 [7]: 3.09
- pIC50 [8]: 2.78
- pIC50 [9]: 3.01
- pIC50 [10]: 3.83
- pIC50 [11]: < 2.40
- pIC50 [12]: 3.06
- pIC50 [13]: < 2.40
- pIC50 [14]: < 2.40
- pIC50 [15]: 2.77
- pIC50 [16]: 2.78
- pIC50 [17]: 3.86
- pIC50 [18]: 2.94
- pIC50 [19]: 3.20
- pIC50 [20]: < 2.40
- pIC50 [21]: 2.94
- pIC50 [22]: 3.38
- pIC50 [23]: < 2.40
- pIC50 [24]: 3.73
- pIC50 [25]: 2.74
- pIC50 [26]: 2.70
- pIC50 [27]: 3.02
- pIC50 [28]: 2.86
- pIC50 [29]: 3.40
- pIC50 [30]: 3.38
- pIC50 [31]: 3.58
- pIC50 [32]: < 2.40
- pIC50 [33]: 3.92
- pIC50 [34]: 3.20
- pIC50 [35]: 3.28
- pIC50 [36]: 3.59
- pIC50 [37]: 4.71
- pIC50 [38]: < 2.40
- pIC50 [39]: 4.37
- pIC50 [40]: 3.14
- pIC50 [41]: 3.69
- pIC50 [42]: 3.46
- pIC50 [43]: < 2.40
- pIC50 [44]: 4.16
- pIC50 [45]: 3.32
- pIC50 [46]: 2.71
- pIC50 [47]: 3.91
- pIC50 [48]: 3.18
- pIC50 [49]: < 2.40
- pIC50 [50]: 3.31
- pIC50 [51]: 3.47
- pIC50 [52]: 2.69
- pIC50 [53]: 4.24

Compound: CN(C)C/C=C/C(=O)Nc1cc2c(Nc3ccc(F)c(Cl)c3)ncnc2cc1O[C@H]1CCOC1 [AFATINIB]
- pIC50 [1]: 7.29
- pIC50 [2]: 6.57
- pIC50 [3]: < 6.30
- pIC50 [4]: < 6.30
- pIC50 [5]: < 6.30
- pIC50 [6]: < 6.30
- pIC50 [7]: < 6.30
- pIC50 [8]: 6.35
- pIC50 [9]: < 6.30
- pIC50 [10]: < 6.30
- pIC50 [11]: < 6.30
- pIC50 [12]: < 6.30
- pIC50 [13]: < 6.30
- pIC50 [14]: < 6.30
- pIC50 [15]: < 6.30
- pIC50 [16]: < 6.30
- pIC50 [17]: < 6.30
- pIC50 [18]: < 6.30
- pIC50 [19]: < 6.30
- pIC50 [20]: 6.99
- pIC50 [21]: < 6.30
- pIC50 [22]: < 6.30
- pIC50 [23]: < 6.30
- pIC50 [24]: < 6.30
- pIC50 [25]: < 6.30
- pIC50 [26]: < 6.30
- pIC50 [27]: < 6.30
- pIC50 [28]: 6.59
- pIC50 [29]: < 6.30
- pIC50 [30]: < 6.30
- pIC50 [31]: < 6.30
- pIC50 [32]: < 6.30
- pIC50 [33]: < 6.30
- pIC50 [34]: < 6.30
- pIC50 [35]: < 6.30
- pIC50 [36]: < 6.30
- pIC50 [37]: 6.93
- pIC50 [38]: < 6.30
- pIC50 [39]: < 6.30
- pIC50 [40]: < 6.30
- pIC50 [41]: < 6.30
- pIC50 [42]: < 6.30
- pIC50 [43]: < 6.30
- pIC50 [44]: < 6.30
- pIC50 [45]: 7.78
- pIC50 [46]: < 6.30
- pIC50 [47]: < 6.30
- pIC50 [48]: < 6.30
- pIC50 [49]: < 6.30
- pIC50 [50]: < 6.30
- pIC50 [51]: < 6.30
- pIC50 [52]: < 6.30
- pIC50 [53]: < 6.30
